This passage reports logD results from the SangsterLogP compilation.

Each structure is given as a SMILES string.

The nature of the series: method code SF-HPLC, from PMID: 1388632. The following applies: pH 7.4.
Regarding `CC(=O)OCc1c2c(n3c1CCC3)C(=O)C(C)=C(C(C)=O)C2=O`, the logD worked out at 2.81.

In the case of `CC(=O)C1=CC(=O)c2c(c(CO)c3n2CCCC3O)C1=O` (centres undefined), the logD was found to be 0.37.

`CC(=O)C1=C(C)C(=O)c2c(c(CO)c3n2CCC3O)C1=O` (centres undefined): the logD is 1.14.

With `CC(=O)OCc1c2c(n3c1C(OC(C)=O)CC3)C(=O)C=C(C(C)=O)C2=O` (centres undefined), the logD stood at 1.15.

With `CC(=O)OCc1c2c(n3c1C(O)CCC3)C(=O)C=C(C(C)=O)C2=O` (centres undefined), the logD was determined as 0.89.

`CCCC(=O)OCc1c2c(n3c1C(OC(=O)CCC)CC3)C(=O)C(C)=C(C(C)=O)C2=O` (centres undefined): the logD came out at 4.

Molecule `CC(=O)OCc1c2c(n3c1C(OC(C)=O)CC3)C(=O)C(C)=C(N1CC1)C2=O` (centres undefined) came in with a logD of 1.75.

Consider `CCNC(=O)OCc1c2c(n3c1C(O)CC3)C(=O)C(C)=C(OC)C2=O` (centres undefined), for which the logD was found to be 1.83.

Regarding `CC(=O)C1=CC(=O)c2c(c(CO)c3n2CCC3O)C1=O` (centres undefined), the logD was -0.09.

A word on the logD: it is lipophilicity at a set pH, counting ionised and neutral species. Higher therefore signals higher lipophilicity.
